Reference: USRE37302E, “Peptide” (Novo Nordisk A/S, priority 1992, dated 2001)
“Also recorded” adds a separate entry of the source. Where no end group is shown, it is not given here.

Columns and labels:
[1] = system: insulin treated obese NIDDM patients; experiment: Meal test in insulin treated obese NIDDM patients (Example 1); assay type: in vivo, human; conditions: meal-related, glibenclamide 1 mg i.v., GLP-1(7-36)amide infusion 0.75 pmol/kg/min for 210 min, 6 NIDDM patients
[2] = system: patients with NIDDM and secondary failure to sulfonylurea treatment; experiment: Basal state and meal test in NIDDM patients with secondary failure to sulfonylurea treatment (Example 2); assay type: in vivo, human; conditions: for Insulinogenic index: after ingestion of the meal, integrated insulin/integrated glucose response; for Blood glucose: 45 minutes after start of administration, glibenclamide 1 mg i.v., GLP-1(7-36)amide 0.75 pmol/kg/min
[3] = system: isolated precultured rat pancreatic islets; conditions: in the presence of glucose; cited from earlier work
[4] = system: diabetic as well as nondiabetic subjects; conditions: diabetic and nondiabetic subjects; cited from earlier work

Compound | Glucagon response [1] | Insulinogenic index [2] | Blood glucose ([2]; basal state) [mmol/L] | effect on blood glucose and C-peptide levels ([2]; basal state, in words) | insulin release [3] | Glucagon response ([1]; listed as GLP-1(7-36) amide) | insulinotropic action [4]
COc1ccc(Cl)cc1C(=O)NCCc1ccc(S(=O)(=O)NC(=O)NC2CCCCC2)cc1 [glibenclamide] | no significant influence on glucagon release; also recorded: no significant effect | 10.6 ± 2.8 | 6.0 ± 0.3 | no significant effect on its own |  |  | 
GLP-1(1-36)amide (HDEFERHAEGTFTSDVSSYLEGQAAKEFIAWLVKGR-NH2; UniProt P01275 92-127, looked up, fragment) [amide of the GLP-1 fragment comprising amino acid residues 1 to 36] |  |  |  |  | stimulates insulin release |  | 
GLP-1(7-36)amide | 10451 ± 5126 pg/ml/210 min | 21.0 ± 7.2 | 5.1 ± 0.4 |  |  | suppressed the glucagon response | 
GLP-1(7-37) (HAEGTFTSDVSSYLEGQAAKEFIAWLVKGRG; Glucagon-like peptide 1(7-37); UniProt P01275 98-128, looked up) [GLP-1 fragment, residues 7 to 37; formula I when X is Gly--OH] |  |  |  |  |  |  | has been demonstrated
